# According to ChEMBL document CHEMBL3797052 (Eur J Med Chem, 2016):
# Experiments:
# [1] = Antiproliferative activity against human HCT15 cells assessed as cell growth at 10^-7 M after 48 hrs by sulforhodamine B assay; assay type: functional; conditions: HCT-15, 48 h, read-out: Activity
# HT-29 = assay: Antiproliferative activity against human HT-29 cells assessed as cell growth at 10^-7 M after 48 hrs by sulforhodamine B assay; assay type: functional; conditions: HT-29, 48 h, read-out: Activity
# KM12 [2] = assay: Antiproliferative activity against human KM12 cells assessed as cell growth at 10^-7 M after 48 hrs by sulforhodamine B assay; assay type: functional; conditions: KM12, 48 h, read-out: Activity
# [3] = Antiproliferative activity against human SW620 cells assessed as cell growth at 10^-7 M after 48 hrs by sulforhodamine B assay; assay type: functional; conditions: SW-620, 48 h, read-out: Activity
# MDA-MB-468 = assay: Antiproliferative activity against human MDA-MB-468 cells assessed as cell growth at 10^-6 M after 48 hrs by sulforhodamine B assay; assay type: functional; conditions: MDA-MB-468, 48 h, read-out: Activity
# MDA-MB-435 = assay: Antiproliferative activity against human MDA-MB-435 cells assessed as cell growth at 10^-7 M after 48 hrs by sulforhodamine B assay; assay type: functional; conditions: MDA-MB-435, 48 h, read-out: Activity
# [4] = Antiproliferative activity against human OVCAR4 cells assessed as cell growth at 10^-7 M after 48 hrs by sulforhodamine B assay; assay type: functional; conditions: OVCAR-4, 48 h, read-out: Activity
# [5] = Antiproliferative activity against human OVCAR5 cells assessed as cell growth at 10^-7 M after 48 hrs by sulforhodamine B assay; assay type: functional; conditions: OVCAR-5, 48 h, read-out: Activity
# [6] = Antiproliferative activity against human TK10 cells assessed as cell growth at 10^-7 M after 48 hrs by sulforhodamine B assay; assay type: functional; conditions: TK-10, 48 h, read-out: Activity
# [7] = Antiproliferative activity against human SF539 cells assessed as growth inhibition after 48 hrs by sulforhodamine B assay; assay type: functional; conditions: SF-539, 48 h
# [8] = Antiproliferative activity against human SW620 cells assessed as growth inhibition after 48 hrs by sulforhodamine B assay; assay type: functional; conditions: SW-620, 48 h; for CC50: read-out: LC50 (the source's name)
# KM12 [9] = assay: Antiproliferative activity against human KM12 cells assessed as growth inhibition after 48 hrs by sulforhodamine B assay; assay type: functional; conditions: KM12, 48 h
# NCI-H226 = assay: Antiproliferative activity against human NCI-H226 cells assessed as growth inhibition after 48 hrs by sulforhodamine B assay; assay type: functional; conditions: NCI-H226, 48 h; for CC50: read-out: LC50 (the source's name)
# CYP2C9 = CYP2C9 (Homo sapiens, UniProt P11712); assay: Inhibition of recombinant human CYP2C9 assessed as remaining enzyme activity using CYP2C9 green as substrate at 10 uM after 5 mins in presence of NADP by fluorescence plate reader analysis; assay type: ADME; conditions: recombinant human CYP2C9, probe CYP2C9 green, read-out: Activity
# [10] = target: Voltage-gated inwardly rectifying potassium channel KCNH2 (Homo sapiens, UniProt Q12809); assay: Inhibition of human ERG assessed as reduction in channel current by automated patch-clamp electrophysiology assay
# [11] = Antiproliferative activity against human HL-60(TB) cells assessed as cell growth at 10^-8 M after 48 hrs by sulforhodamine B assay; assay type: functional; conditions: HL-60, 48 h, read-out: Activity
# [12] = Antiproliferative activity against human MOLT4 cells assessed as cell growth at 10^-8 M after 48 hrs by sulforhodamine B assay; assay type: functional; conditions: MOLT-4, 48 h, read-out: Activity
# NCI-H460 = assay: Antiproliferative activity against human NCI-H460 cells assessed as cell growth at 10^-8 M after 48 hrs by sulforhodamine B assay; assay type: functional; conditions: NCI-H460, 48 h, read-out: Activity
# [13] = Antiproliferative activity against human HCC2998 cells assessed as cell growth at 10^-8 M after 48 hrs by sulforhodamine B assay; assay type: functional; conditions: HCC 2998, 48 h, read-out: Activity
# [14] = Antiproliferative activity against human SNB19 cells assessed as cell growth at 10^-8 M after 48 hrs by sulforhodamine B assay; assay type: functional; conditions: SNB-19, 48 h, read-out: Activity
# T47D = assay: Antiproliferative activity against human T47D cells assessed as cell growth at 10^-7 M after 48 hrs by sulforhodamine B assay; assay type: functional; conditions: read-out: Activity
# K562 = assay: Antiproliferative activity against human K562 cells assessed as cell growth at 10^-6 M after 48 hrs by sulforhodamine B assay; assay type: functional; conditions: K562, 48 h, read-out: Activity
# [15] = Antiproliferative activity against human MOLT4 cells assessed as cell growth at 10^-6 M after 48 hrs by sulforhodamine B assay; assay type: functional; conditions: MOLT-4, 48 h, read-out: Activity
# A549 = assay: Antiproliferative activity against human A549/ATCC cells assessed as cell growth at 10^-6 M after 48 hrs by sulforhodamine B assay; assay type: functional; conditions: A549, 48 h, read-out: Activity
# [16] = Antiproliferative activity against human HCC2998 cells assessed as cell growth at 10^-6 M after 48 hrs by sulforhodamine B assay; assay type: functional; conditions: HCC 2998, 48 h, read-out: Activity
# [17] = Antiproliferative activity against human HOP92 cells assessed as cell growth at 10^-4 M after 48 hrs by sulforhodamine B assay; assay type: functional; conditions: HOP-92, 48 h, read-out: Activity
# NCI-H23 = assay: Antiproliferative activity against human NCI-H23 cells assessed as cell growth at 10^-4 M after 48 hrs by sulforhodamine B assay; assay type: functional; conditions: NCI-H23, 48 h, read-out: Activity
# [18] = Antiproliferative activity against human HCC2998 cells assessed as cell growth at 10^-4 M after 48 hrs by sulforhodamine B assay; assay type: functional; conditions: HCC 2998, 48 h, read-out: Activity
# [19] = Antiproliferative activity against human LOXIMVI cells assessed as cell growth at 10^-4 M after 48 hrs by sulforhodamine B assay; assay type: functional; conditions: LOX IMVI, read-out: Activity
# SK-MEL-5 [20] = assay: Antiproliferative activity against human SK-MEL-5 cells assessed as cell growth at 10^-8 M after 48 hrs by sulforhodamine B assay; assay type: functional; conditions: SK-MEL-5, 48 h, read-out: Activity
# [21] = Antiproliferative activity against human PC3 cells assessed as cell growth at 10^-8 M after 48 hrs by sulforhodamine B assay; assay type: functional; conditions: PC-3, 48 h, read-out: Activity
# MDA-MB-231 = assay: Antiproliferative activity against human MDA-MB-231 cells assessed as cell growth at 10^-8 M after 48 hrs by sulforhodamine B assay; assay type: functional; conditions: MDA-MB-231, 48 h, read-out: Activity
# [22] = Antiproliferative activity against human OVCAR5 cells assessed as cell growth at 10^-6 M after 48 hrs by sulforhodamine B assay; assay type: functional; conditions: OVCAR-5, 48 h, read-out: Activity
# SK-MEL-5 [23] = assay: Antiproliferative activity against human SK-MEL-5 cells assessed as cell growth at 10^-4 M after 48 hrs by sulforhodamine B assay; assay type: functional; conditions: SK-MEL-5, 48 h, read-out: Activity
# [24] = Antiproliferative activity against human OVCAR5 cells assessed as cell growth at 10^-4 M after 48 hrs by sulforhodamine B assay; assay type: functional; conditions: OVCAR-5, 48 h, read-out: Activity
# [25] = Antiproliferative activity against human DU145 cells assessed as cell growth at 10^-4 M after 48 hrs by sulforhodamine B assay; assay type: functional; conditions: DU-145, 48 h, read-out: Activity
# Sequence of CYP2C9 (P11712 whole entry): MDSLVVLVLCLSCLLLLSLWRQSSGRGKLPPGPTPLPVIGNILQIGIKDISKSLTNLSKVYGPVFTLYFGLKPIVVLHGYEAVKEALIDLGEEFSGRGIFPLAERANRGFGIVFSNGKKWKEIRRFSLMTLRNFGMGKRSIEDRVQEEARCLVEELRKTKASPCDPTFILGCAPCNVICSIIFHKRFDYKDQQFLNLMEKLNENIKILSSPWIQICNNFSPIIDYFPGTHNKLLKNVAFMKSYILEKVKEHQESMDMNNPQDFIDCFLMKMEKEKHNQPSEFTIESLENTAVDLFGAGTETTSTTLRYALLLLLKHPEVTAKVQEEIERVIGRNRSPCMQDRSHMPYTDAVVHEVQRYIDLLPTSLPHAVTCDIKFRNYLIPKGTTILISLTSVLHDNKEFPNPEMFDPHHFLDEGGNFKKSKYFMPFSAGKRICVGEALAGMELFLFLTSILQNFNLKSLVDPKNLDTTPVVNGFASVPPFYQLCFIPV
# Sequence of Voltage-gated inwardly rectifying potassium channel KCNH2 (Q12809 whole entry): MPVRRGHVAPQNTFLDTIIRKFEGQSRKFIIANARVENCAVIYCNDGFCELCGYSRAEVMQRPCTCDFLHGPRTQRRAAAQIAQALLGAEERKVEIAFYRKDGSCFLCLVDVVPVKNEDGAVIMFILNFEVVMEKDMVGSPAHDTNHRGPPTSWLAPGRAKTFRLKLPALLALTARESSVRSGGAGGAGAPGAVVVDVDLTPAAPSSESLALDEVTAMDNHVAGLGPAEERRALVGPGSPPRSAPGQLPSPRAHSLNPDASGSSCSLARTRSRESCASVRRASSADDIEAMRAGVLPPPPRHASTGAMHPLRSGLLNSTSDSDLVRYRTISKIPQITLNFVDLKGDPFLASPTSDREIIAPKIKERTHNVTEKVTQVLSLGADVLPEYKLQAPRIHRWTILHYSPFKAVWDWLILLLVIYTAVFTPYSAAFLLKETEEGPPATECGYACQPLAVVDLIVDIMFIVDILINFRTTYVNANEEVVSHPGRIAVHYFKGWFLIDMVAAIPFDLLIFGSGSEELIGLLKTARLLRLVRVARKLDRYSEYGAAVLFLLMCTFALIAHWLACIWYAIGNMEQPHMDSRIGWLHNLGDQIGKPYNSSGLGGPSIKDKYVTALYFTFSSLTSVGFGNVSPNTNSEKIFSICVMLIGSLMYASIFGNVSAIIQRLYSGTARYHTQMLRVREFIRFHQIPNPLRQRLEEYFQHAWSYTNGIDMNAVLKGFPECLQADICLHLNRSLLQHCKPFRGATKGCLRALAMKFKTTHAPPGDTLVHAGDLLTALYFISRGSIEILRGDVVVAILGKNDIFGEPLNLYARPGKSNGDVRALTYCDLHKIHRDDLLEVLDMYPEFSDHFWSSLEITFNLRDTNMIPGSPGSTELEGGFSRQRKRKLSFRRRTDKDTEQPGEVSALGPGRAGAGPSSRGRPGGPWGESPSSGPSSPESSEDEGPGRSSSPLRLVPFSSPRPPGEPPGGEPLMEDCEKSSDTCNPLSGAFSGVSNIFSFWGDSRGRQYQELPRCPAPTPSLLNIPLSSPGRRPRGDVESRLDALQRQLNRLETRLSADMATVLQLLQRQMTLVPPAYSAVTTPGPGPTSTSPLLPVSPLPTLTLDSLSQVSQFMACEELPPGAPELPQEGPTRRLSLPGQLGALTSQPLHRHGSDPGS
structure (smiles),measurement,setting,value
CNC(=O)c1cc(Oc2ccc3nc(NC(=O)Nc4ccc(Cl)c(C(F)(F)F)c4)sc3c2)ccn1,growth at 0.1 µM,[1],96%
same,growth at 0.1 µM,HT-29,103%
same,growth at 0.1 µM,KM12 [2],102%
same,growth at 0.1 µM,[3],101%
same,growth at 1 µM,MDA-MB-468,64%
same,growth at 0.1 µM,MDA-MB-435,92%
same,growth at 0.1 µM,[4],95%
same,growth at 0.1 µM,[5],95%
same,growth at 0.1 µM,[6],105%
same,GI50,[7],1.78 µM
same,TGI,[7],3.9 µM
same,GI50,[8],2.99 µM
same,TGI,[8],> 100 µM
same,CC50,[8],> 100 µM
same,GI50,KM12 [9],3.41 µM
same,LC50,KM12 [9],> 100 µM
same,TGI,KM12 [9],> 100 µM
same,GI50,NCI-H226,2.69 µM
same,TGI,NCI-H226,7.47 µM
same,CC50,NCI-H226,> 100 µM
same,"activity at 5 min, 10 µM",CYP2C9,98.5%
same,IC50,[10],> 100 µM
same,growth at 0.01 µM,[11],101%
same,growth at 0.01 µM,[12],106%
same,growth at 0.01 µM,NCI-H460,106%
same,growth at 0.01 µM,[13],107%
same,growth at 0.01 µM,[14],101%
same,growth at 0.1 µM,T47D,92%
same,growth at 1 µM,K562,96%
same,growth at 1 µM,[15],95%
same,growth at 1 µM,A549,90%
same,growth at 1 µM,[16],94%
same,growth at 100 µM,[17],-64%
same,growth at 100 µM,NCI-H23,-40%
same,growth at 100 µM,[18],66%
same,growth at 100 µM,[19],11%
same,growth at 0.01 µM,SK-MEL-5 [20],93%
same,growth at 0.01 µM,[21],92%
same,growth at 0.01 µM,MDA-MB-231,115%
same,growth at 1 µM,[22],90%
same,growth at 100 µM,SK-MEL-5 [23],57%
same,growth at 100 µM,[24],-24%
same,growth at 100 µM,[25],17%
CNC(=O)c1cc(Oc2ccc3nc(NC(=O)Nc4ccc(Cl)c(Cl)c4)sc3c2)ccn1,growth at 0.1 µM,[1],97%
same,growth at 0.1 µM,HT-29,105%
same,growth at 0.1 µM,KM12 [2],100%
same,growth at 0.1 µM,[3],115%
same,growth at 1 µM,MDA-MB-468,86%
same,growth at 0.1 µM,MDA-MB-435,95%
same,growth at 0.1 µM,[4],100%
same,growth at 0.1 µM,[6],112%
same,GI50,[7],2.17 µM
same,LC50,[7],11.1 µM
same,TGI,[7],4.69 µM
same,GI50,[8],8.11 µM
same,TGI,[8],> 100 µM
same,CC50,[8],> 100 µM
same,GI50,KM12 [9],3 µM
same,LC50,KM12 [9],> 100 µM
same,TGI,KM12 [9],> 100 µM
same,GI50,NCI-H226,2.28 µM
same,TGI,NCI-H226,4.58 µM
same,CC50,NCI-H226,9.21 µM
same,"activity at 5 min, 10 µM",CYP2C9,90%
same,IC50,[10],> 100 µM
same,growth at 0.01 µM,[11],102%
same,growth at 0.01 µM,[12],92%
same,growth at 0.01 µM,NCI-H460,104%
same,growth at 0.01 µM,[13],98%
same,growth at 0.01 µM,[14],98%
same,growth at 0.1 µM,T47D,106%
same,growth at 1 µM,K562,98%
same,growth at 1 µM,[15],99%
same,growth at 1 µM,A549,93%
same,growth at 1 µM,[16],100%
same,growth at 100 µM,[17],-66%
same,growth at 100 µM,NCI-H23,6%
same,growth at 100 µM,[18],37%
same,growth at 100 µM,[19],-62%
same,growth at 0.01 µM,SK-MEL-5 [20],99%
same,growth at 0.01 µM,[21],96%
same,growth at 0.01 µM,MDA-MB-231,89%
same,growth at 100 µM,SK-MEL-5 [23],-23%
same,growth at 100 µM,[25],-34%
CNC(=O)c1cc(Oc2ccc3nc(NC(=O)c4cc(C(F)(F)F)cc(C(F)(F)F)c4)sc3c2)ccn1,growth at 0.1 µM,[1],96%
same,growth at 0.1 µM,HT-29,107%
same,growth at 0.1 µM,KM12 [2],99%
same,growth at 0.1 µM,[3],102%
same,growth at 1 µM,MDA-MB-468,95%
same,growth at 0.1 µM,MDA-MB-435,92%
same,growth at 0.1 µM,[4],92%
same,growth at 0.1 µM,[5],80%
same,growth at 0.1 µM,[6],94%
same,GI50,[7],3.14 µM
same,LC50,[7],71.1 µM
same,TGI,[7],14.8 µM
same,GI50,[8],7.56 µM
same,TGI,[8],63.8 µM
same,CC50,[8],> 100 µM
same,GI50,KM12 [9],2.7 µM
same,LC50,KM12 [9],92.7 µM
same,TGI,KM12 [9],11 µM
same,GI50,NCI-H226,4.15 µM
same,TGI,NCI-H226,17.4 µM
same,CC50,NCI-H226,76.2 µM
same,"activity at 5 min, 10 µM",CYP2C9,32.7%
same,IC50,[10],48.4 µM
same,growth at 0.01 µM,[11],92%
same,growth at 0.01 µM,[12],86%
same,growth at 0.01 µM,NCI-H460,99%
same,growth at 0.01 µM,[13],105%
same,growth at 0.01 µM,[14],98%
same,growth at 0.1 µM,T47D,88%
same,growth at 1 µM,K562,102%
same,growth at 1 µM,[15],85%
same,growth at 1 µM,A549,105%
same,growth at 1 µM,[16],102%
same,growth at 100 µM,[17],-41%
same,growth at 100 µM,NCI-H23,-45%
same,growth at 100 µM,[18],-60%
same,growth at 100 µM,[19],-51%
same,growth at 0.01 µM,SK-MEL-5 [20],95%
same,growth at 0.01 µM,[21],96%
same,growth at 0.01 µM,MDA-MB-231,108%
same,growth at 1 µM,[22],80%
same,growth at 100 µM,SK-MEL-5 [23],-89%
same,growth at 100 µM,[24],-48%
same,growth at 100 µM,[25],-65%
